Tested on: MDA-MB-231 cells
Experiment: Cell viability/cell growth, cells re-treated every 48 hours
Assay type: cell-based
Conditions: triple negative breast cancer cells
Procedure: MDA-MB-231 cells were plated on a 96-well plate at 10,000 cells per well to evaluate the effects of BSA alone, conjugated DHA-BSA, Liposomal DHA, and a ghost liposome on cell viability. The cells were re-treated every 48 hours. […] All treatments were compared to the cell/media control. The ghost had no effect on cell viability.

Compound: CC/C=C\C/C=C\C/C=C\C/C=C\C/C=C\C/C=C\CCC(=O)O [DHA, Docosahexanoic acid]
- concentration that inhibits cell growth with comparable effect: 25 to 50 µM

Reference: patent US10272041B2, “Acid stable liposomal compositions and methods for producing the same” (The Penn State Research Foundation, priority 2013, dated 2019)
